Measured values as given in ChEMBL document CHEMBL4354883, “Design, Synthesis, and Biological Evaluation of HSP90 Inhibitor-SN38 Conjugates for Targeted Drug Accumulation” (J Med Chem, 2020).
Activity calls are given as the source filed them. No cut-off for these calls is given here.

How the values were obtained:
Heat shock protein HSP90 = Heat shock protein HSP90 (Homo sapiens, UniProt P07900+P08238); experiment: Inhibition of HSP90 in human HCT116 cells assessed as upregulation of HSP70 expression at 0.2 to 5 uM after 24 hrs by Western blot analysis; assay type: cell-based
[1] = Drug uptake in tumor of mouse xenografted with human HCT116 cells at 50 mg/kg, iv administered as single dose after 1 hr by LC-MS/MS analysis; assay type: ADME, organism-based, Neoplasm; conditions: in vivo
CAPAN-1 [2] = experiment: Antitumor activity against human Capan1 cells xenografted in mouse assessed as reduction in Ki67 expression at 50 mg/kg, iv for every 2 days measured at 2 hrs post last dose by Ki67 staining based immunohistochemical analysis; assay type: functional, organism-based
CAPAN-1 [3] = experiment: Antitumor activity against human Capan1 cells xenografted in mouse assessed as tumor cells with nuclear lysis at 36 mg/kg, iv for every 2 days measured at 2 hrs post last dose by H and E staining based analysis; assay type: functional, organism-based
[4] = Drug uptake in tumor of mouse xenografted with human Capan1 cells assessed as retention time of the compound at 50 mg/kg, iv by LC-MS/MS analysis; assay type: ADME, organism-based, Neoplasm; conditions: in vivo
[5] = Toxicity in liver of mouse xenografted with human Capan1 cells assessed as pathological changes at 50 mg/kg, iv for every 2 days measured at 2 hrs post last dose by H and E staining based analysis; assay type: organism-based; conditions: in vivo
[6] = target: T1, DNA topoisomerase 1 (Homo sapiens) (UniProt P11387); experiment: Inhibition of topoisomerase 1 in human HCT116 cells assessed as increase in phosphorylated KAP1 expression after 24 hrs by Western blot analysis; assay type: cell-based
T1 sequence (whole entry): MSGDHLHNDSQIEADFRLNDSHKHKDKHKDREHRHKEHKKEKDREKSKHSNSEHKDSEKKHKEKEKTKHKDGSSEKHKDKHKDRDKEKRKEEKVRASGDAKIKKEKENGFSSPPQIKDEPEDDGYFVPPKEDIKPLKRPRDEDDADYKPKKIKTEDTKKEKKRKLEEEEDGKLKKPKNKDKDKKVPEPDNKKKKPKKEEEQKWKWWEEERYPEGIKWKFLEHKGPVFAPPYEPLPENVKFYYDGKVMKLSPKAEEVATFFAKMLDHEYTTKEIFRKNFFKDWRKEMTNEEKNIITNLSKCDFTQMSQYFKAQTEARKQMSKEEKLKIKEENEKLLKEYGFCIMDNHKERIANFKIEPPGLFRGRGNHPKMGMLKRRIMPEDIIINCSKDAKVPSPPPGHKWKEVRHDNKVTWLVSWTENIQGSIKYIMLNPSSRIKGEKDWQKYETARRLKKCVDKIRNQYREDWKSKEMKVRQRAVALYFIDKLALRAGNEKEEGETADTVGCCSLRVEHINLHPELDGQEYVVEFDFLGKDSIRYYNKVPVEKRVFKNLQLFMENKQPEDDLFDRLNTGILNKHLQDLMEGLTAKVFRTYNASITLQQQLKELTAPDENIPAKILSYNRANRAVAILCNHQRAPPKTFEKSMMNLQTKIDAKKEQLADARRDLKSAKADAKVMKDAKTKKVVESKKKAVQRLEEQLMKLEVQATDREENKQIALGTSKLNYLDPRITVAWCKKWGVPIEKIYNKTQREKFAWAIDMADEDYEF

[7] = Toxicity in mouse xenografted with human Capan1 cells assessed as increase in body weight at 50 mg/kg, iv for every 2 days; assay type: organism-based; conditions: in vivo, 48 h
[8] = Drug uptake in mouse plasma xenografted with human Capan1 cells at 50 mg/kg, iv after 30 mins by LC-MS/MS analysis; assay type: ADME, organism-based; conditions: in vivo, 0.5 h
[9] = Drug uptake in human HL7702 cells at 5 uM after 6 hrs in presence of HSP90 ATPase competitive inhibitor, NVP-AUY922 by confocal laser scanning microscopic analysis; assay type: ADME, cell-based; conditions: l02, 6 h
CAPAN-1 [10] = experiment: Antitumor activity against human Capan1 cells xenografted in mouse assessed as reduction in tumor weight at 50 mg/kg, iv for every 2 days and measured twice per week by caliper method; assay type: functional, organism-based
CAPAN-1 [11] = experiment: Antitumor activity against human Capan1 cells xenografted in mouse assessed as increase in apoptosis of tumor cells by measuring increase in green fluorescence at 50 mg/kg, iv for every 2 days measured at 2 hrs post last dose by TUNEL assay; assay type: functional, organism-based

Row | SMILES | inhibition (Heat shock protein HSP90) | Drug uptake [1] | Activity (CAPAN-1 [2]) | Activity (CAPAN-1 [3]) | Retention_time [4] [h] | Activity [5] | inhibition [6] | Activity [7] [%] | Drug uptake [8] | Drug uptake [9] | Activity (CAPAN-1 [10]) | Activity (CAPAN-1 [11])
1 | CCc1c2c(nc3ccc(OC(=O)N4CCC(NC(=O)c5noc(-c6cc(C(C)C)c(O)cc6O)c5-c5ccc(CN6CCOCC6)cc5)CC4)cc13)-c1cc3c(c(=O)n1C2)COC(=O)[C@]3(O)CC | Active | – | – | – | – | – | – | – | – | – | – | –
2 | CCc1c2c(nc3ccc(O)cc13)-c1cc3c(c(=O)n1C2)COC(=O)[C@@]3(CC)OC(=O)CNC(=O)c1noc(-c2cc(C(C)C)c(O)cc2O)c1-c1ccc(CN2CCOCC2)cc1 | – | Not Active | Active | Active | 72 | Non-Toxic | Dose-dependent effect | 10 | Active | Not Active | Active | Active
